The values below come from PMC10460844, “Real‐Time Monitoring of Multitarget Antimicrobial Mechanisms of Peptoids Using Label‐Free Imaging with Optical Diffraction Tomography” (Advanced Science, 2023).

Data set [1] is described as follows: Analytical reversed-phase HPLC elution (hydrophobicity). Conditions: Table 1; analytical RP-HPLC, SunFire C18 […] 250 mm, water/ACN + 0.1% TFA, 5% B 2 min then linear to 100% B over 30 min, 1 mL/min, UV 220 nm; used as measure of hydrophobicity. The data set is classed as physicochemical. An outline of the steps: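 Retention time (tR) reflects hydrophobicity, with detection at 220 nm. Elution used a 5–100% acetonitrile linear gradient over 30 min after a 2 min hold at 5%, then 5 min at 100%, with both phases containing 0.1% TFA. Column was an analytical C18 (4.6 × 250 mm, 5 μm) run at 1 mL/min.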

The subject of data set [2] is E. coli ATCC 25922. Briefly: NPN uptake assay (outer membrane). Conditions: E. coli ATCC 25922, 5 mM HEPES pH 7.2, 10 µM NPN, fluorescence. The data set is classed as cell-based. How it is done:
14. In vitro biological assays […]
The ability of peptoids to increase the permeability of the outer membrane of Gram-negative bacteria was determined by measuring the incorporation of the NPN fluorescent dye into the outer membrane of E. coli ATCC 25922. Bacterial cells were suspended to a final concentration of OD600 = 0.05 in 5 mM HEPES buffer, pH 7.2, containing 5 mM KCN. Then […]
200 μL NPN dye was added to wells of a 96 well plate to produce a final concentration of 10 μM, and the background fluorescence was recorded (λex = 350 nm, λem = 420 nm). Aliquots of peptoids were added to the well, and fluorescence was recorded as a function of time until there was no further increase in fluorescence. Increases of the permeability of the outer membrane after the addition of peptoids was reflected by increased fluorescence values as a result of NPN incorporation into the membrane. […]

Data set [3] concerns E. coli ML-35 cells. Briefly: ONPG hydrolysis assay (inner membrane). It counts as cell-based. To be noted: 1.5 mM ONPG, 10 mM sodium phosphate pH 7.4, absorbance 405 nm. How it is done:
The permeability of the inner membrane was determined using E. coli ML-35 cells […]
The intact bacterial inner membrane is non-permeable to o-nitrophenyl-β-D-galactopyranoside (OPNG), a chromogenic substrate of the β-galactosidase.
Following damage to the inner membrane, OPNG enters the cells and is metabolized by β-galactosidase creating a chromogenic […]. E. coli cells were washed in 10 mM sodium phosphate (pH 7.4) containing 100 mM NaCl and resuspended in the same buffer at a final concentration of OD600 = 0.5 containing 1.5 mM ONPG. The hydrolysis of ONPG and generation of o-nitrophenol over time were monitored as absorbance change at 405 nm following the addition of peptoids. […]

In data set [4] the test system is S. aureus ATCC 25923. It counts as cell-based, Staphylococcus aureus. In a few lines:
(§1)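 Peptoid MICs were determined by broth dilution, scoring the lowest concentration that kept wells clear by eye. Compounds ran at six concentrations in two-fold steps up to 25 µM against ≈2–5 × 10^5 CFU mL^−1 in BSA/acetic acid-supplemented cation-adjusted Mueller Hinton broth.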

Data set [5] relates to E. faecium KCTC 13225. The data set is classed as cell-based.
In data set [6] the test system is P. aeruginosa KCTC 1637. It counts as cell-based.
Data set [7] has as its system E. coli ATCC 25922. It counts as cell-based, Escherichia coli. In a few lines: as §1
Where [8] appears, read: Table S2, broth dilution, MHB2, 37 °C 24 h, max 25 µM, mean of triplicate.
The mark [9] stands for this setting: Table S3, counter-ion exchange series (TFA, HCl, AcOH salts), mean of triplicate.
Setting [10] is: Table S3, counter-ion exchange series, mean of triplicate.

Molecules are shown by their SMILES. Converted amounts (≈) assume the structure as drawn. Where two headings read alike, the source gives them in different places. Square brackets hold non-standard residues; d marks the D form. Peptide text beside a SMILES is read from it. Gly(N(CH2)2(3-indolyl)) = O=C(O)CNCCc1c[nH]c2ccccc12; Nspe = C[C@H](NCC(=O)O)c1ccccc1; Nlys = NCCCCNCC(=O)O

With `C[C@@H](c1ccccc1)N(CC(=O)N(CCCCN)CC(=O)N(CCc1c[nH]c2ccccc12)CC(=O)N(CCc1c[nH]c2ccccc12)CC(N)=O)C(=O)CN(CCCCN)C(=O)CN(CCCCN)C(=O)CN(C(=O)CN(C(=O)CN(CCCCN)C(=O)CN(C(=O)CN(C(=O)CNCCCCN)[C@@H](C)c1ccccc1)[C@@H](C)c1ccccc1)[C@@H](C)c1ccccc1)[C@@H](C)c1ccccc1` [peptoid 29] (H-[Nlys][Nspe][Nspe][Nlys][Nspe][Nspe][Nlys][Nlys][Nspe][Nlys][Gly(N(CH2)2(3-indolyl))][Gly(N(CH2)2(3-indolyl))]-NH2), the “HPLC elution (%ACN)” value in data set [1] is 48.6 %ACN. Besides, the “outer membrane disruption (NPN uptake)” value in data set [2] was “somewhat lower”. Also, in data set [3], the “inner membrane disruption (ONPG hydrolysis)” value (from here on “inner membrane disruption”) is given as “lower than that seen with more hydrophobic peptoids”. The figures for the “MIC S. aureus ATCC25923” value in data set [4] (ATCC 25923) and in data set [4] (setting [8]) were 12.5 µM (≈ 23.3 µg/mL) and 6.3 µM (≈ 11.7 µg/mL), respectively. Further, in data set [5] (KCTC 13225), the “MIC E. faecium KCTC 13225” value is recorded as 1.6 µM (≈ 2.98 µg/mL). For the same compound, the “MIC P. aeruginosa KCTC 1637” value in data set [6] (KCTC 1637) stood at 3.1 µM (≈ 5.78 µg/mL). Besides, the “MIC E. coli ATCC25922” value stood at 6.3 µM (≈ 11.7 µg/mL) in data set [7] (setting [8]); 6.3 µM in data set [7] (setting [9]); 6.3 µM (≈ 11.7 µg/mL) in data set [7] (broth dilution, MHB2 with 0.001% acetic acid and 0.02% BSA, 2–5 × 10^5 CFU/mL, 37 °C 24 h, max 25 µM, mean of triplicates).

Regarding `C[C@@H](c1ccccc1)N(CC(=O)N(CCCCN)CC(=O)N(CC(=O)N(CC(=O)N(CCCCN)CC(=O)N(CC(=O)N(CC(=O)N(CCCCN)CC(=O)N(CCc1c[nH]c2ccccc12)CC(=O)N(CCc1c[nH]c2ccccc12)CC(N)=O)[C@@H](C)c1ccccc1)[C@@H](C)c1ccccc1)[C@@H](C)c1ccccc1)[C@@H](C)c1ccccc1)C(=O)CN(C(=O)CNCCCCN)[C@@H](C)c1ccccc1` [peptoid 11] (H-[Nlys][Nspe][Nspe][Nlys][Nspe][Nspe][Nlys][Nspe][Nspe][Nlys][Gly(N(CH2)2(3-indolyl))][Gly(N(CH2)2(3-indolyl))]-NH2), the “HPLC elution (%ACN)” value in data set [1] stood at 54.0 %ACN. Moreover, the “outer membrane disruption (NPN uptake)” value in data set [2] was “strongly disrupted”. Besides, the “inner membrane disruption” value in data set [3] is “strongly disrupted”. The “MIC S. aureus ATCC25923” value in data set [4] (setting [8]) and in data set [4] (setting [10]) was 1.6 µM (≈ 3.04 µg/mL) in each case. Moreover, the “MIC E. faecium KCTC 13225” value in data set [5] (KCTC 13225) was under 0.8 µM. The “MIC P. aeruginosa KCTC 1637” value in data set [6] (KCTC 1637) is given as 3.1 µM (≈ 5.88 µg/mL). The “MIC E. coli ATCC25922” value in data set [7] (ATCC 25922) was found to be 3.1 µM (≈ 5.88 µg/mL); in data set [7] (setting [8]), 6.3 µM (≈ 12 µg/mL).

Regarding `C[C@@H](c1ccccc1)N(CC(N)=O)C(=O)CN(C(=O)CN(CCCCN)C(=O)CN(C(=O)CN(C(=O)CN(CCCCN)C(=O)CN(C(=O)CN(C(=O)CN(CCCCN)C(=O)CN(C(=O)CN(C(=O)CNCCCCN)[C@@H](C)c1ccccc1)[C@@H](C)c1ccccc1)[C@@H](C)c1ccccc1)[C@@H](C)c1ccccc1)[C@@H](C)c1ccccc1)[C@@H](C)c1ccccc1)[C@@H](C)c1ccccc1` [peptoid 1, reference compound] (H-[Nlys][Nspe][Nspe][Nlys][Nspe][Nspe][Nlys][Nspe][Nspe][Nlys][Nspe][Nspe]-NH2), the “HPLC elution (%ACN)” value in data set [1] is 54.5 %ACN. Also, the “outer membrane disruption (NPN uptake)” value in data set [2] is reported as “strongly disrupted”. The “inner membrane disruption” value in data set [3] is given as “strongly disrupted”. Further, the “MIC S. aureus ATCC25923” value in data set [4] (setting [8]) and in data set [4] (setting [10]) was 1.6 µM (≈ 2.91 µg/mL) each time. In addition, the “MIC E. faecium KCTC 13225” value in data set [5] (gram-positive pathogenic strain, mean of triplicates) was under 0.8 µM. Also, the “MIC P. aeruginosa KCTC 1637” value in data set [6] (gram-negative pathogenic strain, maintained in refined LB media, mean of triplicates) turned out to be 6.3 µM (≈ 11.5 µg/mL). In addition, the “MIC E. coli ATCC25922” value worked out at 6.3 µM (≈ 11.5 µg/mL) in data set [7] (setting [8]) and 6.3 µM in data set [7] (setting [9]).
